In patent US4883800A, “Quinazoline derivatives and process for their production” (Fujisawa Pharmaceutical Co., Ltd., priority 1985, dated 1989):

What was measured:
[1] = tested on: sorbitol accumulation in sciatic nerve; experiment: Inhibitory effect of drug on sorbitol accumulation in sciatic nerve (in vivo test); set-up: species or system Male Sprague-Dawley rats (streptozotocin-induced diabetic); settings: 32 mg/kg, oral, once a day for five days; 6 hours after final administration; streptozotocin-diabetic rats
Method: Inhibitory effect of drug on sorbitol accumulation in sciatic nerve:
Male Sprague-Dawley rats (6 weeks old) were fasted for 24 hours and then made diabetic by the intraperitoneal injection (2 ml/kg) of streptozotocin (75 mg/kg) dissolved in 2 mM citrate buffer (pH 4.5).
Seven days after streptozotocin injection, blood glucose value was measured by taking blood from tail vein. Rats with blood glucose value of >300 mg/dl were used as streptozotocin-induced diabetic animals.
Diabetic animals were divided at random into two groups (group (A) and group (B)).
Drug was suspended in 0.5% aqueous methylcellulose solution and orally administered to each rat in group (A) once a day for five days [hereinafter referred to as drug-treated diabetic rats].
Each of rats in group (B) and of normal rats was given the vehicle (0.5% aqueous methylcellulose solution) [hereinafter referred to as untreated diabetic rats and control rats, respectively].
Six hours after final administration of drug or vehicle, animals were killed and sorbitol content in sciatic nerve was assayed. Inhibitory percent of drug on sorbitol accumulation in sciatic nerve was calculated as follows. [formula]
S: Sorbitol content in sciatic nerve of untreated diabetic rats.
SD : Sorbitol content in sciatic nerve of drug-treated diabetic rats.
N: Sorbitol content in sciatic nerve of control rats.

aldose reductase = target: T1, aldose reductase (Oryctolagus cuniculus, UniProt P15122); experiment: Enzymatic assay method: aldose reductase inhibition (in vitro test); type: biochemical; settings: rabbit lens enzyme; D,L-glyceraldehyde, NADPH; 35° C., 2 minutes; pH 6.2 buffer; read-out: IC50: concentration at which 50% of the aldose reductase activity is inhibited
T1 construct: The supernatant was dialyzed against 2 liters of 0.05M of saline solution and the dialyzed solution was used as the enzyme solution; from tissue; host or cells: rabbit eye lens, 10,000 G supernatant of homogenate, dialyzed
Method: (1) Enzymatic assay method:
0.5 M Phosphate buffer (pH 6.2)
2.0 M Lithium sulfate 0.2 ml
The compound of this invention mentioned
(dissolved in physiological saline
Enzyme solution [aldose reductase solution,
prepared as described below (2)]
60 mM D,L-glyceraldehyde 0.05 ml
2.5 mM Nicotinamide adenine
dinucleotide phosphate (reduced form)
The above reactants were mixed and reacted at 35° C. for 2 minutes and the decrease in amount of NADPH was measured with an Automatic Reaction Rate Analyzer Model LKB-8600 (Trademark, made by LKB Producter A.B.). The enzyme activity at a change in absorbance of 0.001 per minute was taken as unity.
(2) Method for preparing an enzyme solution
Rabbit eyes were enucleated and the lenses were collected. The lenses were homogenized with 3 volumes of distilled water at 4° C. (All the subsequent procedures were also performed at 4° C.) and centrifuged at 10,000 G for 60 minutes. The supernatant was dialyzed against 2 liters of 0.05M of saline solution and the dialyzed solution was used as the enzyme solution.
Each IC50 value (M) represents the concentration of the compounds of this invention at which 50% of the aldose reductase activity is inhibited.

| SMILES | IC50 (aldose reductase) | I: Inhibitory percent on sorbitol accumulation in sciatic nerve [1] |
| --- | --- | --- |
| O=C(O)Cn1c(=O)n(Cc2ccc(Br)cc2F)c(=O)c2ccc(Cl)cc21 [Compound F, 2-[3-(4-Bromo-2-fluorobenzyl)-7-chloro-1,2,3,4-tetrahydro-2,4-dioxoquinazolin-1-yl]acetic acid] | – | 99% |
| COc1ccc2c(=O)n(Cc3ccc(Br)cc3F)c(=O)n(CC(=O)O)c2c1 [Compound C, 2-[3-(4-Bromo-2-fluorobenzyl)-1,2,3,4-tetrahydro-7-methoxy-2,4-dioxoquinazolin-1-yl]acetic acid] | 5.4 nM | – |
| O=C(O)Cn1c(=O)n(Cc2ccc(Br)cc2F)c(=O)c2ccc(Br)cc21 [Compound E, 2-[7-Bromo-3-(4-bromo-2-fluorobenzyl)-1,2,3,4-tetrahydro-2,4-dioxoquinazolin-1-yl]acetic acid] | 3.1 nM | 103% |

Now from value to molecule, other results behind:

| IC50 (aldose reductase) | SMILES | I: Inhibitory percent on sorbitol accumulation in sciatic nerve [1] |
| --- | --- | --- |
| 5.4 nM | O=C(O)Cn1c(=O)n(Cc2ccc(Cl)c(Cl)c2)c(=O)c2ccccc21 [Compound A, 2-[3-(3,4-Dichlorobenzyl)-1,2,3,4-tetrahydro-2,4-dioxoquinazolin-1-yl]acetic acid] | – |
| 5.3 nM | O=C(O)Cn1c(=O)n(Cc2ccc(I)cc2F)c(=O)c2ccccc21 [Compound D, 2-[3-(2-Fluoro-4-iodobenzyl)-1,2,3,4-tetrahydro-2,4-dioxoquinazolin-1-yl]acetic acid] | 101% |
| 4.8 nM | O=C(O)Cn1c(=O)n(Cc2ccc(Br)cc2F)c(=O)c2ccccc21 [Compound B, 2-[3-(4-Bromo-2-fluorobenzyl)-1,2,3,4-tetrahydro-2,4-dioxoquinazolin-1-yl]acetic acid] | – |
